# Experimental data published in patent publication US6498183B1, “Substituted indole sulfonamides as anitviral agents” (Bayer Aktiengesellschaft, priority 1999, dated 2002).
# Columns and labels:
# [1] = tested on: human cytomegalovirus (HCMV); assay: anti-HCMV screening test (cytopathogenic effect) in HELF cell cultures; assay type: cell-based; settings: Human betaherpesvirus 5; HCMV-infected HELF cells, 96-well plates; concentration giving 50% inhibition of virus activity (CPE, Neutral Red)
# Experimental: The anti-HCMV action was determined in a screening test system in 96-well microtitre plates with the assistance of human embryonic lung fibroblasts (HELF) cell cultures. The affect of these substances on the extent of the cytopathogenic effect was determined by comparison with the reference substance ganciclovir (Cymevene^R sodium), a clinically approved anti-HCMV chemotherapeutic agent (EC50, corresponding to the effective concentration at which a 50% inhibition of virus activity is achieved).
# The substances dissolved (50 mM) in DMSO (dimethyl sulphoxide) are investigated on microtitre plates (96-well) in duplicate determinations (4 substances/plate). Toxic and cytostatic effects of the substances are also detected thereby (CC50, corresponding to the concentration at which half the cells are destroyed owing to administration of the substance). […]
# After this time, the cell lawn in the virus controls free of substance, starting from 50-100 infectious centres, is completely destroyed by the cytopathogenic effect of the HCMV (100% CPE). After staining with Neutral Red and fixing with formalin/methanol, the plates are evaluated using a projection microscope (plaque viewer).
# [2] = toxic and cytostatic effects on HELF cells in the anti-HCMV screening test; assay type: cell-based; settings: human, concentration at which half the cells are destroyed
# Experimental: The substances dissolved (50 mM) in DMSO (dimethyl sulphoxide) are investigated on microtitre plates (96-well) in duplicate determinations (4 substances/plate). Toxic and cytostatic effects of the substances are also detected thereby (CC50, corresponding to the concentration at which half the cells are destroyed owing to administration of the substance). After the appropriate substance dilutions (1:2) on the microtitre plate, a suspension of 50-100 HCMV-infected HELF cells and […] uninfected HELF cells in Eagle's MEM with 10% fetal calf serum are put in each well, and the plates are incubated at 37° C. in a CO2 incubator for several days. After this time, the cell lawn in the virus controls free of substance, starting from 50-100 infectious centres, is completely destroyed by the cytopathogenic effect of the HCMV (100% CPE). After staining with Neutral Red and fixing with formalin/methanol, the plates are evaluated using a projection microscope (plaque viewer).
Compound,EC50 [1] [µM],CC50 [2] [µM]
"CC(=O)n1ccc2cc(S(=O)(=O)Nc3ccc(C(=O)NC(C)(C)C)cc3)ccc21 [Example 2, 4-[N-Acetylindole-5-sulphonylamino]-N-(tert-butyl)benzamide]",0.39,86
"CCn1ccc2cc(S(=O)(=O)Nc3cccc(NC(=O)C(C)(C)CF)c3)ccc21 [Example 1, N-[(N-Ethylindole)-5-sulphonyl]-N′-(3-fluoro-2,2-dimethylpropanoyl)-1,3-diamino-benzene]",0.055,15.6
